# Assay results reported in ChEMBL document CHEMBL4616595, “Targeted suppression of metastasis regulatory transcription factor SOX2 in various cancer cell lines using a sequence-specific designer pyrrole-imidazole polyamide” (Bioorg Med Chem, 2020).
# Activity calls are given as the source filed them. The calls are words filed in the database; no cut-off is given here.
# Experiments:
# SOX2 promoter DNA [1] = assay: Binding affinity to SOX2 promoter 5'-CTTTGTT-3' DNA in human SW620 cells assessed as upregulation of CDKN2B mRNA expression incubated for 48 hrs by qRT-PCR analysis; type: cell-based; details: SW-620
# SOX2 promoter DNA [2] = assay: Binding affinity to SOX2 promoter 5'-CTTTGTT-3' DNA in human SW620 cells assessed as down regulation of GLI3 gene expression at 2 uM incubated for 48 hrs by Cy3-labelled cRNA-based microarray analysis; type: cell-based; details: SW-620
# SOX2 promoter DNA [3] = assay: Binding affinity to SOX2 promoter 5'-CTTTGTT-3' DNA in human DU145 cells assessed as reduction in SOX2 mRNA expression incubated for 48 hrs by qRT-PCR analysis; type: cell-based; details: DU-145
# SOX2 promoter DNA [4] = assay: Binding affinity to SOX2 promoter 5'-CTTTGTT-3' DNA in human SW620 cells assessed as down regulation of CDC42 mRNA expression incubated for 48 hrs by qRT-PCR analysis; type: cell-based; details: SW-620
# U2OS = assay: Cell cycle arrest in human U2OS cells assessed as increase in accumulation at sub-G1/G1 phase at 2 uM to 5 uM after 48 hrs by propidium iodide staining based flow cytometry analysis; type: functional
# SOX2 promoter DNA [5] = assay: Binding affinity to SOX2 promoter 5'-CTTTGTT-3' DNA in human SW620 cells assessed as downregulation beta-catenin mRNA expression incubated for 48 hrs by qRT-PCR analysis; type: cell-based; details: SW-620
# SW-620 [6] = assay: Up regulation of PUMA mRNA expression in human SW620 cells incubated for 48 hrs by qRT-PCR analysis; type: functional, cell-based
# MCF7 [7] = assay: Antiproliferative activity against human MCF7 cells assessed as inhibition of cell proliferation incubated for 48 hrs by [3H]thymidine incorporation based scintillation counting method; type: functional
# SOX2 promoter DNA [8] = assay: Binding affinity to SOX2 promoter 5'-CTTTGTT-3' DNA in human SW620 cells assessed as down regulation of GRB2 mRNA expression incubated for 48 hrs by qRT-PCR analysis; type: cell-based; details: SW-620
# MKN-45 [9] = assay: Cell cycle arrest in human MKN45 cells assessed as reduction in accumulation at S phase at 2 uM to 5 uM after 48 hrs by propidium iodide staining based flow cytometry analysis; type: functional
# SOX2 promoter DNA [10] = assay: Binding affinity to SOX2 promoter 5'-CTTTGTT-3' DNA in human SW620 cells assessed as reduction in SOX2 mRNA expression incubated for 48 hrs by qRT-PCR analysis; type: cell-based; details: SW-620
# SOX2 promoter DNA [11] = assay: Binding affinity to SOX2 promoter 5'-CTTTGTT-3' DNA in human SW620 cells assessed as downregulation of SNAIL2 mRNA expression at 2 uM incubated for 48 hrs by qRT-PCR analysis; type: cell-based; details: SW-620
# MCF7 [12] = assay: Cytotoxicity against human MCF7 cells assessed as reduction in cell viability incubated for 48 hrs by MTT assay; type: functional, cell-based
# SW-620 [13] = assay: Up regulation of FAS mRNA expression in human SW620 cells incubated for 48 hrs by qRT-PCR analysis; type: functional, cell-based
# NHDF = assay: Cytotoxicity against HDF cells assessed as effect on cell viability measured after 48 hrs by MTT assay; type: cell-based; details: human
# MKN-45 [14] = assay: Antiproliferative activity against human MKN45 cells assessed as inhibition of cell proliferation incubated for 48 hrs by [3H]thymidine incorporation based scintillation counting method; type: functional
# SOX2 promoter DNA [15] = assay: Binding affinity to SOX2 promoter 5'-CTTTGTT-3' DNA in human MCF7 cells assessed as reduction in SOX2 mRNA expression incubated for 48 hrs by qRT-PCR analysis; type: cell-based
compound,measurement,setting,value
CC(=O)Nc1cc(C(=O)Nc2cc(C(=O)Nc3cc(C(=O)NCCC(=O)Nc4cn(C)c(C(=O)Nc5cc(C(=O)NCCCC(=O)Nc6cc(C(=O)Nc7cc(C(=O)NCCC(=O)Nc8cc(C(=O)Nc9cc(C(=O)Nc%10cn(C)c(C(=O)NCCCN(C)C)n%10)n(C)c9)n(C)c8)n(C)c7)n(C)c6)n(C)c5)n4)n(C)c3)n(C)c2)n(C)c1,Activity,SOX2 promoter DNA [1],Active
same,Activity,SOX2 promoter DNA [2],Active
same,Activity,SOX2 promoter DNA [3],Active
same,Activity,SOX2 promoter DNA [4],Active
same,Activity,U2OS,Active
same,Activity,SOX2 promoter DNA [5],Active
same,Activity,SW-620 [6],Active
same,inhibition,MCF7 [7],Dose-dependent effect
same,Activity,SOX2 promoter DNA [8],Active
same,Activity,MKN-45 [9],Active
same,Activity,SOX2 promoter DNA [10],Active
same,Activity,SOX2 promoter DNA [11],Active
same,Activity,MCF7 [12],Dose-dependent effect
same,Activity,SW-620 [13],Active
same,Activity,NHDF,Non-Toxic
same,inhibition,MKN-45 [14],Dose-dependent effect
same,Activity,SOX2 promoter DNA [15],Active
